Data on 13 compounds can be found in US12465590B2, “Oxalamido-substituted tricyclic inhibitors of hepatitis b virus” (priority 2019, dated 2025).

The subject of the first assay is HBV. The experiment in a line: HBV inhibition assay in HepAD38 cells (extracellular HBV DNA by direct qPCR). In kind it is cell-based, HBV genotype D subtype ayw. The settings on record: 96 hours, read-out: HBV inh EC50. The source says: HepAD38 cell line (Ladner et al., Antimicrob Agents Chemother, 1997, 41, 1715-20) was used for HBV inhibition assays. HepAD38 is a subclone, derived from hepatoblastoma cell line HepG2 (ATCC® Number: HB-8065), that expresses HBV genome (genotype D subtype ayw) under the transcriptional control of a tetracycline-responsive promoter in a TET-OFF system: addition of doxycycline, an antibiotic belonging to the class of tetracycline, suppresses HBV replication, while its removal switches on the process allowing HBV viral particles release in the cell supernatant. HepAD38 cell line is maintained in DMEM/F12, supplemented with 10% of fetal bovine serum, 1% of glutamine, 1% of penicillin/streptomycin, 0.4 mg/ml G418 and 0.3 ug/ml tetracycline. For the HBV inhibition assay, doxycycline-free medium is used in order to allow virion production.
HBV inhibition activity in vitro was performed in 96 multiwell plates. During the initial (primary) screening, compounds were first tested in triplicates at concentrations of 0.02 μM, 0.1 μM, 0.5 μM and 1 μM. For selected compounds, an 8-point dose-response curve was obtained using 1:2 serial dilutions (starting from 0.01 μM, 0.1 μM, 0.4 μM or 5 μM, depending on the degree of inhibition observed during the primary screening). From the dose-response curves, half maximal effective concentration (EC50) could be calculated (see also below).
In more detail, compounds—typically dissolved in DMSO stock solutions—were diluted to 2× the final desired concentration in 100 μl of the above medium (without doxycycline) and plated in three replicates in the 96-well plates.
Simultaneously, HepAD38 cells—extensively pre-washed in doxycycline-free medium in order to induce HBV production—were suspended at 2*10^4 cells in 100 μl of doxycycline-free medium and added to each well of the plate, to yield a final assay volume of 200 μl.
DMSO, used for stock solutions and compounds dilutions, was always present in the assays at a final concentration of 0.5%.
Plates were then incubated 96 hours at 37° C. and then subjected to cell viability assays and extracellular HBV quantification, in order to evaluate both the cytotoxic potential and the antiviral activity of compounds.
Cytotoxicity was assessed by a commercial fluorescence assay that measures the metabolic activity of cells, directly related to cell viability (Cell Titer Blue, Promega). For each compound, cytotoxicity was evaluated at the same concentration employed to evaluate its anti-HBV activity. Anti-HBV activity was evaluated by quantification of extracellular HBV DNA with direct qPCR. In particular, supernatant was collected and centrifuged for cell debris clarification, viral DNA was extracted from virions by addition of lysis buffer (1 mM 1,4-dithiothreitol, 0.2% sodium dodecyl sulphate) and incubated at 95° C. for 10 min. Samples were then diluted 1:40 and real time PCR amplification was performed with SYBR green assay (Power SYBR™ Green PCR Master Mix-Thermo Fisher Scientific) and specific HBV primer (HBV-DF:5′-[…]-3′ (SEQ ID No. 1), HBV-DR:5′-[…]-3′ (SEQ ID No. 2)).
Antiviral activity data for each compound are reported as EC50 value (see Table 1 legend). Excel and Graphpad Prism programs are typically used for data elaboration and EC50 calculation.
Broadly, the EC50 is the concentration that produces a half-maximal response. On to `Cc1cc(NC(=O)c2c3c(cn2C)S(=O)(=O)NC2CN(C(=O)C(=O)NC(C)(C)C(F)(F)F)CCC2CO3)ccc1F` (racemic) [Example E69, Trans-N-(4-fluoro-3-methylphenyl)-2-methyl-7-(2-oxo-2-((1,1,1-trifluoro-2-methylpropan-2-yl)amino)acetyl)-5,5a,6,7,8,9,9a,10-octahydro-2H-pyrido[3,4-f]pyrrolo[3,4-b][1,4,5]oxathiazocine-1-carboxamide 4,4-dioxide], for which the concentration for a half-maximal effect (EC50) is less than 500 nM.

Consider `Cc1cc(NC(=O)c2c3c(cn2C)S(=O)(=O)NC2CN(C(=O)C(=O)N4CC(F)(F)C4)CCC2CO3)ccc1F` (racemic) [Example E70, Trans-7-(2-(3,3-difluoroazetidin-1-yl)-2-oxoacetyl)-N-(4-fluoro-3-methylphenyl)-2-methyl-5,5a,6,7,8,9,9a,10-octahydro-2H-pyrido[3,4-f]pyrrolo[3,4-b][1,4,5]oxathiazocine-1-carboxamide 4,4-dioxide], for which the half-maximal effective concentration (EC50) is less than 500 nM. On the same count and under the same terms, the result for `Cc1cc(NC(=O)c2c3c(cn2C)S(=O)(=O)NC2CN(C(=O)C(=O)N[C@@H](C)C(F)(F)F)CCC2CO3)ccc1F` (mixture of isomers) [Example E71, Trans-N-(4-fluoro-3-methylphenyl)-2-methyl-7-(2-oxo-2-(((S)-1,1,1-trifluoropropan-2-yl)amino)acetyl)-5,5a,6,7,8,9,9a,10-octahydro-2H-pyrido[3,4-f]pyrrolo[3,4-b][1,4,5]oxathiazocine-1-carboxamide 4,4-dioxide] reads less than 500 nM. For the compound `Cc1cc(NC(=O)c2c3c(cn2C)S(=O)(=O)NC2CCN(C(=O)C(=O)N[C@H](C)C(F)(F)F)CC2CO3)ccc1F` (mixture of isomers) [Example E72, Cis-N-(4-fluoro-3-methylphenyl)-2-methyl-8-(2-oxo-2-(((R)-1,1,1-trifluoropropan-2-yl)amino)acetyl)-5,5a,6,7,8,9,9a,10-octahydro-2H-pyrido[4,3-f]pyrrolo[3,4-b][1,4,5]oxathiazocine-1-carboxamide 4,4-dioxide], the EC50 is less than 500 nM. `Cc1cc(NC(=O)c2c3c(cn2C)S(=O)(=O)NC2CCN(C(=O)C(=O)NCC(F)(F)F)CC2CO3)ccc1F` (racemic) [Example E73, Cis-N-(4-fluoro-3-methylphenyl)-2-methyl-8-(2-oxo-2-((2,2,2-trifluoroethyl)amino)acetyl)-5,5a,6,7,8,9,9a,10-octahydro-2H-pyrido[4,3-f]pyrrolo[3,4-b][1,4,5]oxathiazocine-1-carboxamide 4,4-dioxide]: the half-maximal effective concentration (EC50) is less than 500 nM.

The assay is the same for the next values; noted with them: Hepatitis B virus, 96 hours, read-out: HBV inh EC50.
Take `Cc1cc(NC(=O)c2c3c(cn2C)S(=O)(=O)NC2CN(C(=O)C(=O)N[C@H](C)C(F)(F)F)CC2(C)CO3)ccc1F` (stereo in doubt) [Example E26, Cis-N-(4-fluoro-3-methylphenyl)-7,10a-dimethyl-2-(2-oxo-2-(((R)-1,1,1-trifluoropropan-2-yl)amino)acetyl)-2,3,3a,4,10,10a-hexahydro-1H,7H-dipyrrolo[3,4-b:3′,4′-f][1,4,5]oxathiazocine-8-carboxamide 5,5-dioxide]: the half-maximal effective concentration (EC50) is less than 500 nM. Take `Cc1cc(NC(=O)c2c3c(cn2C)S(=O)(=O)NC2(C)CN(C(=O)C(=O)N[C@H](C)C(F)(F)F)CC2CO3)ccc1F` (stereo in doubt) [Example E27, Cis-N-(4-fluoro-3-methylphenyl)-3a,7-dimethyl-2-(2-oxo-2-(((R)-1,1,1-trifluoropropan-2-yl)amino)acetyl)-2,3,3a,4,10,10a-hexahydro-1H,7H-dipyrrolo[3,4-b:3 ‘,4’-f][1,4,5]oxathiazocine-8-carboxamide 5,5-dioxide]: the EC50 was less than 500 nM. Take `Cc1cc(NC(=O)c2c3c(cn2C)S(=O)(=O)NC2CN(C(=O)C(=O)N[C@H](C)C(F)(F)F)CC2CO3)ccc1F` (stereo in doubt) [Example E30, trans-N-(4-fluoro-3-methylphenyl)-7-methyl-2-(2-oxo-2-(((R)-1,1,1-trifluoropropan-2-yl)amino)acetyl)-2,3,3a,4,10,10a-hexahydro-1H,7H-dipyrrolo[3,4-b:3′,4′-f][1,4,5]oxathiazocine-8-carboxamide 5,5-dioxide]: the concentration giving a half-maximal response (EC50) is less than 500 nM.

Take `Cc1cc(NC(=O)c2c3c(c(Br)n2C)S(=O)(=O)N[C@H]2CN(C(=O)C(=O)N[C@H](C)C(F)(F)F)C[C@H]2CO3)ccc1F` [Example E52, (3aR,10aR)-6-bromo-N-(4-fluoro-3-methylphenyl)-7-methyl-2-(2-oxo-2-(((R)-1,1,1-trifluoropropan-2-yl)amino)acetyl)-2,3,3a,4,10,10a-hexahydro-1H,7H-dipyrrolo[3,4-b:3′,4′-f][1,4,5]oxathiazocine-8-carboxamide 5,5-dioxide]: the EC50 was less than 500 nM. Regarding `Cc1cc(NC(=O)c2c3c(c(C)n2C)S(=O)(=O)N[C@H]2CN(C(=O)C(=O)N[C@H](C)C(F)(F)F)C[C@H]2CO3)ccc1F` [Example E53, (3aR,10aR)—N-(4-fluoro-3-methylphenyl)-6,7-dimethyl-2-(2-oxo-2-(((R)-1,1,1-trifluoropropan-2-yl)amino)acetyl)-2,3,3a,4,10,10a-hexahydro-1H,7H-dipyrrolo[3,4-b:3′,4′-f][1,4,5]oxathiazocine-8-carboxamide 5,5-dioxide], the half-maximal effective concentration (EC50) is less than 500 nM. `Cc1cc(NC(=O)c2c3c(cn2C)S(=O)(=O)N[C@H]2CN(C(=O)C(=O)N[C@H](C)C(F)(F)F)C[C@@]2(C)CO3)ccc1F` [Example E74, (3aR,10aR)—N-(4-fluoro-3-methylphenyl)-7,10a-dimethyl-2-(2-oxo-2-(((R)-1,1,1-trifluoropropan-2-yl)amino)acetyl)-2,3,3a,4,10,10a-hexahydro-1H,7H-dipyrrolo[3,4-b:3′,4′-f][1,4,5]oxathiazocine-8-carboxamide 5,5-dioxide]: the 50% effective concentration (EC50) is less than 500 nM. `Cc1cc(NC(=O)c2c3c(cn2C)S(=O)(=O)N[C@H]2CN(C(=O)C(=O)N[C@H](C)C(F)(F)F)C[C@@]2(O)CO3)ccc1F` [Example E75, (3aS,10aS)—N-(4-fluoro-3-methylphenyl)-10a-hydroxy-7-methyl-2-(2-oxo-2-(((R)-1,1,1-trifluoropropan-2-yl)amino)acetyl)-2,3,3a,4,10,10a-hexahydro-1H,7H-dipyrrolo[3,4-b:3′,4′-f][1,4,5]oxathiazocine-8-carboxamide 5,5-dioxide]: the EC50 was less than 500 nM.

Another assay relates to HBV.
Assay: not given
The settings on record: Phase 1b clinical studies; cited from earlier work.
On to `O=C(Nc1cc(F)c(F)c(F)c1)c1ccc(F)c(S(=O)(=O)N2CCC(O)CC2)c1` [NVR3-778], for which the “HBV DNA” value was “significant reduction” and the “serum HBV RNA” value is “significant reduction”.
